In PubChem BioAssay AID248 (DTP/NCI, 2004) one finds T/C data, which are given here for 11 molecules.

Where “and” joins values, the source holds several entries; their conditions need not be identical. Equal entries are not always repeated. Inconclusive results and toxic doses are left out.

This assay relates to L1210 leukemia ip in BDF1 mice, survival T/C. Kind of assay: NCI In Vivo Anticancer Drug Screen. Data for tumor model L1210 Leukemia (intraperitoneal) in B6D2F1 (BDF1) mice. Particulars: endpoint: mean survival time, higher = longer survival. The method in brief:
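Transplanted-tumor mice were given test agent; controls received vehicle only. Survival readings from the two groups were divided (treated over control).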

[1] abbreviates: dose: 200.0 mg/kg/injection, schedule: Q01DX009 (ip), vehicle: Klucel (hydroxypropylcellulose) (HPC).

With `C=C1c2[nH]c3ccccc3c2C2C(CC)C1CCN2C` (stereo not given), the T/C was 102 % of control (dose: 30.0 mg/kg/injection, schedule: Q01DX Z (ip), vehicle: olive oil, sesame oil, peanut oil) and 98 % of control (dose: 50.0 mg/kg/injection, schedule: Q01DX Z (ip), vehicle: olive oil, sesame oil, peanut oil).

Consider `CC(C)n1c2c([n+](C)c1/C=C/c1ccccc1)C(=O)c1ccccc1C2=O`, for which the T/C reads like this: (dose: 1.0 mg/kg/injection, schedule: Q01DX009 (ip), vehicle: Klucel (hydroxypropylcellulose) (HPC)) 106 % of control; (dose: 1.0 mg/kg/injection, schedule: Q04DX003 (ip), vehicle: Klucel (hydroxypropylcellulose) (HPC)) 107 % of control; (dose: 2.0 mg/kg/injection, schedule: Q01DX009 (ip), vehicle: Klucel (hydroxypropylcellulose) (HPC)) 101 % of control; (dose: 2.0 mg/kg/injection, schedule: Q04DX003 (ip), vehicle: Klucel (hydroxypropylcellulose) (HPC)) 96 % of control; (dose: 4.0 mg/kg/injection, schedule: Q04DX003 (ip), vehicle: Klucel (hydroxypropylcellulose) (HPC)) 86 % of control; (dose: 5.0 mg/kg/injection, schedule: Q01DX001 (ip), vehicle: saline) 103 % of control.

As to `Nc1ccc2c(c1)C(=O)c1c(F)ccc(F)c1-2`, the T/C is, setting by setting: (dose: 50.0 mg/kg/injection, schedule: Q01DX001 (ip), vehicle: carboxymethylcellulose (CMC)) 98 % of control; (dose: 100.0 mg/kg/injection, schedule: Q01DX001 (ip), vehicle: carboxymethylcellulose (CMC)) 96 % of control; (dose: 200.0 mg/kg/injection, schedule: Q01DX001 (ip), vehicle: carboxymethylcellulose (CMC)) 104 % of control; (dose: 400.0 mg/kg/injection, schedule: Q01DX001 (ip), vehicle: carboxymethylcellulose (CMC)) 115 % of control.

As to `CC(=O)NC1CCC(Br)CC1` (stereo not given), the T/C is 94 % of control (dose: 50.0 mg/kg/injection, schedule: Q01DX009 (ip), vehicle: Klucel (hydroxypropylcellulose) (HPC)); 105 % of control (dose: 100.0 mg/kg/injection, schedule: Q01DX009 (ip), vehicle: Klucel (hydroxypropylcellulose) (HPC)); 102 % of control under setting [1].

Regarding `CCCCCCCCCCCCCCn1cnc2ncnc(Cl)c21`, the T/C is 104 % of control (dose: 12.5 mg/kg/injection, schedule: Q01DX005 (ip), vehicle: other); 104 % of control (dose: 25.0 mg/kg/injection, schedule: Q01DX005 (ip), vehicle: other); 103 % of control (dose: 50.0 mg/kg/injection, schedule: Q01DX005 (ip), vehicle: other); 101 % of control (dose: 100.0 mg/kg/injection, schedule: Q01DX005 (ip), vehicle: other); 96 % of control (dose: 200.0 mg/kg/injection, schedule: Q01DX005 (ip), vehicle: other).

Consider `O=C1NC(c2cccs2)N2C(=O)NC(c3cccs3)N12` (stereo not given), for which the T/C reads like this: (dose: 100.0 mg/kg/injection, schedule: Q04DX002 (ip), vehicle: gum acacia) 105 % of control; (dose: 200.0 mg/kg/injection, schedule: Q04DX002 (ip), vehicle: gum acacia) 109 % of control; (dose: 400.0 mg/kg/injection, schedule: Q04DX002 (ip), vehicle: gum acacia) 112 % of control.

With `CCN(CC)CCOC(=O)c1ccc(N)cc1`, the T/C by setting is: (dose: 12.5 mg/kg/injection, schedule: Q01DX009 (ip), vehicle: saline) 97 % of control; (dose: 25.0 mg/kg/injection, schedule: Q01DX009 (ip), vehicle: saline) 103 % of control; (dose: 25.0 mg/kg/injection, schedule: Q04DX003 (ip), vehicle: saline) 101 % of control; (dose: 50.0 mg/kg/injection, schedule: Q01DX009 (ip), vehicle: saline) 100 % of control and 95 % of control; (dose: 50.0 mg/kg/injection, schedule: Q04DX003 (ip), vehicle: saline) 111 % of control; (dose: 100.0 mg/kg/injection, schedule: Q01DX009 (ip), vehicle: saline) 100 % of control and 101 % of control. Also, for the setting “dose: 100.0 mg/kg/injection, schedule: Q04DX003 (ip), vehicle: saline”, the T/C is 101 % of control.

As to `NCc1ccc[n+]([O-])c1`, the T/C is, setting by setting: (dose: 12.5 mg/kg/injection, schedule: Q04DX002 (ip), vehicle: saline with Tween-80) 97 % of control; (dose: 25.0 mg/kg/injection, schedule: Q04DX002 (ip), vehicle: saline with Tween-80) 105 % of control; (dose: 50.0 mg/kg/injection, schedule: Q04DX002 (ip), vehicle: saline with Tween-80) 102 % of control and 118 % of control; (dose: 200.0 mg/kg/injection, schedule: Q04DX002 (ip), vehicle: saline with Tween-80) 89 % of control.

As to `COc1cc2c(cc1OC)C(OC)N(C)c1c-2ccc2cc3c(cc12)OCO3` (stereo not given), the T/C was 106 % of control (dose: 5.0 mg/kg/injection, schedule: Q01DX009 (ip), vehicle: Klucel (hydroxypropylcellulose) (HPC)); 106 % of control (dose: 10.0 mg/kg/injection, schedule: Q01DX009 (ip), vehicle: Klucel (hydroxypropylcellulose) (HPC)); 123 % of control (dose: 10.0 mg/kg/injection, schedule: Q01DX009 (ip), vehicle: saline); 95 % of control (dose: 20.0 mg/kg/injection, schedule: Q01DX009 (ip), vehicle: Klucel (hydroxypropylcellulose) (HPC)); 163 % of control (dose: 20.0 mg/kg/injection, schedule: Q01DX009 (ip), vehicle: steriod suspending solution); 123 % of control (dose: 20.0 mg/kg/injection, schedule: Q04DX003 (ip), vehicle: saline). Besides, the T/C is, setting by setting: (dose: 40.0 mg/kg/injection, schedule: Q01DX009 (ip), vehicle: Klucel (hydroxypropylcellulose) (HPC)) 113 % of control; (dose: 40.0 mg/kg/injection, schedule: Q04DX003 (ip), vehicle: saline) 121 % of control; (dose: 80.0 mg/kg/injection, schedule: Q01DX009 (ip), vehicle: Klucel (hydroxypropylcellulose) (HPC)) 111 % of control; (dose: 80.0 mg/kg/injection, schedule: Q04DX003 (ip), vehicle: saline) 124 % of control; (dose: 100.0 mg/kg/injection, schedule: Q04DX002 (ip), vehicle: Klucel (hydroxypropylcellulose) (HPC)) 118 % of control and 119 % of control; (dose: 100.0 mg/kg/injection, schedule: Q04DX003 (ip), vehicle: Klucel (hydroxypropylcellulose) (HPC)) 116 % of control. Also, the T/C runs as follows: (dose: 160.0 mg/kg/injection, schedule: Q01DX009 (ip), vehicle: Klucel (hydroxypropylcellulose) (HPC)) 109 % of control; (dose: 160.0 mg/kg/injection, schedule: Q04DX003 (ip), vehicle: saline) 112 % of control; under setting [1], 122 % of control; (dose: 200.0 mg/kg/injection, schedule: Q04DX002 (ip), vehicle: Klucel (hydroxypropylcellulose) (HPC)) 123 % of control; (dose: 200.0 mg/kg/injection, schedule: Q04DX003 (ip), vehicle: Klucel (hydroxypropylcellulose) (HPC)) 111 % of control; (dose: 320.0 mg/kg/injection, schedule: Q01DX009 (ip), vehicle: Klucel (hydroxypropylcellulose) (HPC)) 111 % of control. Besides, the T/C is 124 % of control (dose: 400.0 mg/kg/injection, schedule: Q01DX009 (ip), vehicle: Klucel (hydroxypropylcellulose) (HPC)); 152 % of control (dose: 400.0 mg/kg/injection, schedule: Q04DX002 (ip), vehicle: Klucel (hydroxypropylcellulose) (HPC)); 106 % of control (dose: 400.0 mg/kg/injection, schedule: Q04DX003 (ip), vehicle: Klucel (hydroxypropylcellulose) (HPC)).

Turning to `BrC1CCCCC1Br` (stereo not given), the T/C was 98 % of control (dose: 100.0 mg/kg/injection, schedule: Q01DX001 (ip), vehicle: saline) and 101 % of control (dose: 200.0 mg/kg/injection, schedule: Q01DX001 (ip), vehicle: saline).

Consider `COc1cc(CC2Cc3cccc(=O)c(O)c3C(=O)O2)cc(OC)c1OC` (stereo not given), for which the T/C is 90 % of control (dose: 100.0 mg/kg/injection, schedule: Q04DX003 (ip), vehicle: saline with Tween-80); 95 % of control (dose: 200.0 mg/kg/injection, schedule: Q04DX003 (ip), vehicle: saline with Tween-80); 92 % of control (dose: 400.0 mg/kg/injection, schedule: Q04DX003 (ip), vehicle: saline with Tween-80).
